Source: US20150025118A1, “ACTIVE COMPOUND COMPOSITIONS FOR VECTOR CONTROL OF INSECTICIDE-RESISTANT PESTS” (priority 2012, published 2015)

How the values were obtained:
[1] = system: Anopheles gambiae (target-site-resistant and metabolic-resistant strain: RSPH); test: Target-site-resistant and metabolic-resistant Anopheles test: treated glazed tile, knock-down; assay type: in vivo
Experimental: (§1) The exposition time is 30 minutes.
(§2) 0.25 hours, 0.5 hours, 1 hour, 2 hour, 3 hour, 4 hour and 24 hours after contact to the treated surface, the knock-down proportion of the test animals in % is determined. Here, 100% means that all mosquitoes have been killed; 0% means that none of the mosquitoes has been killed.

[2] = system: Anopheles funestus metabolic-resistant strain FUMOZ-R; test: Metabolic-resistant Anopheles test: treated glazed tile, knock-down; assay type: in vivo
Experimental: as §1, §2

Aedes aegypti = test: Aedes test: contact on treated glazed tile, knock-down; assay type: in vivo
Experimental: To produce a suitable preparation of active compound combination the active compounds bendiocarb and clothianidin were dissolved in acetone (for the control group only one active compound was dissolved in acetone). The active compound combination preparation (and the active compound preparations) were pipetted onto a glazed tile and, after drying, adult mosquitoes of the species Aedes aegypti are placed onto the treated tile. The exposition time is 30 minutes.
as §2

mosquitoes = conditions: alone, stated as known, cited from earlier work
[3] = Bendiocarb 0.032 mg/m^2 alone, 0.25 h after contact
[4] = Bendiocarb 0.032 mg/m^2 alone, 0.5 h after contact
[5] = Bendiocarb 0.032 mg/m^2 alone, 1 h after contact
[6] = Bendiocarb 0.032 mg/m^2 alone, 2 h after contact
[7] = Bendiocarb 0.032 mg/m^2 alone, 3 h after contact
[8] = Bendiocarb 0.032 mg/m^2 alone, 4 h after contact
[9] = Bendiocarb 0.032 mg/m^2 alone, 24 h after contact
[10] = Bendiocarb 0.16 mg/m^2 alone, 0.25 h after contact
[11] = Bendiocarb 0.16 mg/m^2 alone, 0.5 h after contact
[12] = Bendiocarb 0.16 mg/m^2 alone, 1 h after contact
[13] = Bendiocarb 0.16 mg/m^2 alone, 2 h after contact
[14] = Bendiocarb 0.16 mg/m^2 alone, 3 h after contact
[15] = Bendiocarb 0.16 mg/m^2 alone, 4 h after contact
[16] = Bendiocarb 0.16 mg/m^2 alone, 24 h after contact
[17] = Clothianidin 5 mg/m^2 alone, 0.25 h after contact
[18] = Clothianidin 5 mg/m^2 alone, 0.5 h after contact
[19] = Clothianidin 5 mg/m^2 alone, 1 h after contact
[20] = Clothianidin 5 mg/m^2 alone, 2 h after contact
[21] = Clothianidin 5 mg/m^2 alone, 3 h after contact
[22] = Clothianidin 5 mg/m^2 alone, 4 h after contact
[23] = Clothianidin 5 mg/m^2 alone, 24 h after contact
[24] = Clothianidin 20 mg/m^2 alone, 0.25 h after contact
[25] = Clothianidin 20 mg/m^2 alone, 0.5 h after contact
[26] = Clothianidin 20 mg/m^2 alone, 1 h after contact
[27] = Clothianidin 20 mg/m^2 alone, 2 h after contact
[28] = Clothianidin 20 mg/m^2 alone, 3 h after contact
[29] = Clothianidin 20 mg/m^2 alone, 4 h after contact
[30] = Clothianidin 20 mg/m^2 alone, 24 h after contact
[31] = Dinotefuran 0.8 mg/m^2 alone, 0.25 h after contact
[32] = Dinotefuran 0.8 mg/m^2 alone, 0.5 h after contact
[33] = Dinotefuran 0.8 mg/m^2 alone, 1 h after contact
[34] = Dinotefuran 0.8 mg/m^2 alone, 2 h after contact
[35] = Dinotefuran 0.8 mg/m^2 alone, 3 h after contact
[36] = Dinotefuran 0.8 mg/m^2 alone, 4 h after contact
[37] = Dinotefuran 0.8 mg/m^2 alone, 24 h after contact
[38] = Dinotefuran 4 mg/m^2 alone, 0.25 h after contact
[39] = Dinotefuran 4 mg/m^2 alone, 0.5 h after contact
[40] = Dinotefuran 4 mg/m^2 alone, 1 h after contact
[41] = Dinotefuran 4 mg/m^2 alone, 2 h after contact
[42] = Dinotefuran 4 mg/m^2 alone, 3 h after contact
[43] = Dinotefuran 4 mg/m^2 alone, 4 h after contact
[44] = Dinotefuran 4 mg/m^2 alone, 24 h after contact

SMILES: CNC(=O)Oc1cccc2c1OC(C)(C)O2 [Bendiocarb, bendiocarb]
- Effect % (knock-down) ([1]; Bendiocarb 0.032 mg/m^2 alone (Table 2), 0.25 h after contact): 5%
- Effect % (knock-down) ([1]; Bendiocarb 0.032 mg/m^2 alone (Table 2), 0.5 h after contact): 5%
- Effect % (knock-down) ([1]; Bendiocarb 0.032 mg/m^2 alone (Table 2), 1 h after contact): 15%
- Effect % (knock-down) ([1]; Bendiocarb 0.032 mg/m^2 alone (Table 2), 2 h after contact): 10%
- Effect % (knock-down) ([1]; Bendiocarb 0.032 mg/m^2 alone (Table 2), 3 h after contact): 10%
- Effect % (knock-down) ([1]; Bendiocarb 0.032 mg/m^2 alone (Table 2), 4 h after contact): 15%
- Effect % (knock-down) ([1]; Bendiocarb 0.032 mg/m^2 alone (Table 2), 24 h after contact): 35%
- Effect % (knock-down) ([1]; Bendiocarb 0.032 mg/m^2 alone (Table 3), 0.25 h after contact): 10%
- Effect % (knock-down) ([1]; Bendiocarb 0.032 mg/m^2 alone (Table 3), 0.5 h after contact): 25%
- Effect % (knock-down) ([1]; Bendiocarb 0.032 mg/m^2 alone (Table 3), 1 h after contact): 25%
- Effect % (knock-down) ([1]; Bendiocarb 0.032 mg/m^2 alone (Table 3), 2 h after contact): 25%
- Effect % (knock-down) ([1]; Bendiocarb 0.032 mg/m^2 alone (Table 3), 3 h after contact): 35%
- Effect % (knock-down) ([1]; Bendiocarb 0.032 mg/m^2 alone (Table 3), 4 h after contact): 35%
- Effect % (knock-down) ([1]; Bendiocarb 0.032 mg/m^2 alone (Table 3), 24 h after contact): 80%
- Effect % (knock-down) ([1]; Bendiocarb 0.16 mg/m^2 alone (Table 2), 0.25 h after contact): 5%
- Effect % (knock-down) ([1]; Bendiocarb 0.16 mg/m^2 alone (Table 2), 0.5 h after contact): 90%
- Effect % (knock-down) ([1]; Bendiocarb 0.16 mg/m^2 alone (Table 2), 1 h after contact): 95%
- Effect % (knock-down) ([1]; Bendiocarb 0.16 mg/m^2 alone (Table 2), 2 h after contact): 100%
- Effect % (knock-down) ([1]; Bendiocarb 0.16 mg/m^2 alone (Table 2), 3 h after contact): 100%
- Effect % (knock-down) ([1]; Bendiocarb 0.16 mg/m^2 alone (Table 2), 4 h after contact): 90%
- Effect % (knock-down) ([1]; Bendiocarb 0.16 mg/m^2 alone (Table 2), 24 h after contact): 90%
- Effect % (knock-down) ([1]; Bendiocarb 0.16 mg/m^2 alone (Table 3), 0.25 h after contact): 15%
- Effect % (knock-down) ([1]; Bendiocarb 0.16 mg/m^2 alone (Table 3), 0.5 h after contact): 100%
- Effect % (knock-down) ([1]; Bendiocarb 0.16 mg/m^2 alone (Table 3), 1 h after contact): 100%
- Effect % (knock-down) ([1]; Bendiocarb 0.16 mg/m^2 alone (Table 3), 2 h after contact): 100%
- Effect % (knock-down) ([1]; Bendiocarb 0.16 mg/m^2 alone (Table 3), 3 h after contact): 100%
- Effect % (knock-down) ([1]; Bendiocarb 0.16 mg/m^2 alone (Table 3), 4 h after contact): 100%
- Effect % (knock-down) ([1]; Bendiocarb 0.16 mg/m^2 alone (Table 3), 24 h after contact): 100%
- Effect % (knock-down) ([1]; Bendiocarb 0.8 mg/m^2 alone (Table 2), 0.25 h after contact): 95%
- Effect % (knock-down) ([1]; Bendiocarb 0.8 mg/m^2 alone (Table 2), 0.5 h after contact): 100%
- Effect % (knock-down) ([1]; Bendiocarb 0.8 mg/m^2 alone (Table 2), 1 h after contact): 100%
- Effect % (knock-down) ([1]; Bendiocarb 0.8 mg/m^2 alone (Table 2), 2 h after contact): 100%
- Effect % (knock-down) ([1]; Bendiocarb 0.8 mg/m^2 alone (Table 2), 3 h after contact): 100%
- Effect % (knock-down) ([1]; Bendiocarb 0.8 mg/m^2 alone (Table 2), 4 h after contact): 100%
- Effect % (knock-down) ([1]; Bendiocarb 0.8 mg/m^2 alone (Table 2), 24 h after contact): 100%
- Effect % (knock-down) [2, 3]: 0%
- Effect % (knock-down) [2, 4]: 5%
- Effect % (knock-down) [2, 5]: 5%
- Effect % (knock-down) [2, 6]: 5%
- Effect % (knock-down) [2, 7]: 10%
- Effect % (knock-down) [2, 8]: 10%
- Effect % (knock-down) [2, 9]: 40%
- Effect % (knock-down) [2, 10]: 0%
- Effect % (knock-down) [2, 11]: 80%
- Effect % (knock-down) [2, 12]: 80%
- Effect % (knock-down) [2, 13]: 45%
- Effect % (knock-down) [2, 14]: 50%
- Effect % (knock-down) [2, 15]: 20%
- Effect % (knock-down) [2, 16]: 90%
- Effect % (knock-down) ([2]; Bendiocarb 0.8 mg/m^2 alone, 0.25 h after contact): 100%
- Effect % (knock-down) ([2]; Bendiocarb 0.8 mg/m^2 alone, 0.5 h after contact): 100%
- Effect % (knock-down) ([2]; Bendiocarb 0.8 mg/m^2 alone, 1 h after contact): 100%
- Effect % (knock-down) ([2]; Bendiocarb 0.8 mg/m^2 alone, 2 h after contact): 100%
- Effect % (knock-down) ([2]; Bendiocarb 0.8 mg/m^2 alone, 3 h after contact): 100%
- Effect % (knock-down) ([2]; Bendiocarb 0.8 mg/m^2 alone, 4 h after contact): 95%
- Effect % (knock-down) ([2]; Bendiocarb 0.8 mg/m^2 alone, 24 h after contact): 100%
- Effect % (knock-down) (Aedes aegypti; [3]): 0%
- Effect % (knock-down) (Aedes aegypti; [4]): 0%
- Effect % (knock-down) (Aedes aegypti; [5]): 0%
- Effect % (knock-down) (Aedes aegypti; [6]): 0%
- Effect % (knock-down) (Aedes aegypti; [7]): 0%
- Effect % (knock-down) (Aedes aegypti; [8]): 5%
- Effect % (knock-down) (Aedes aegypti; [9]): 0%
- Effect % (knock-down) (Aedes aegypti; [10]): 0%
- Effect % (knock-down) (Aedes aegypti; [11]): 5%
- Effect % (knock-down) (Aedes aegypti; [12]): 5%
- Effect % (knock-down) (Aedes aegypti; [13]): 5%
- Effect % (knock-down) (Aedes aegypti; [14]): 10%
- Effect % (knock-down) (Aedes aegypti; [15]): 10%
- Effect % (knock-down) (Aedes aegypti; [16]): 5%
- efficiency on concrete (mosquitoes; on concrete (alkaline)): not efficient

SMILES: CN/C(=N\[N+](=O)[O-])NCc1cnc(Cl)s1 [Clothianidin, clothianidin]
- Effect % (knock-down) [1, 17]: 15%
- Effect % (knock-down) [1, 18]: 25%
- Effect % (knock-down) [1, 19]: 35%
- Effect % (knock-down) [1, 20]: 35%
- Effect % (knock-down) [1, 21]: 45%
- Effect % (knock-down) [1, 22]: 50%
- Effect % (knock-down) [1, 23]: 65%
- Effect % (knock-down) [1, 24]: 30%
- Effect % (knock-down) [1, 25]: 35%
- Effect % (knock-down) [1, 26]: 40%
- Effect % (knock-down) [1, 27]: 45%
- Effect % (knock-down) [1, 28]: 50%
- Effect % (knock-down) [1, 29]: 55%
- Effect % (knock-down) [1, 30]: 65%
- Effect % (knock-down) ([1]; Clothianidin 50 mg/m^2 alone, 0.25 h after contact): 10%
- Effect % (knock-down) ([1]; Clothianidin 50 mg/m^2 alone, 0.5 h after contact): 35%
- Effect % (knock-down) ([1]; Clothianidin 50 mg/m^2 alone, 1 h after contact): 65%
- Effect % (knock-down) ([1]; Clothianidin 50 mg/m^2 alone, 2 h after contact): 65%
- Effect % (knock-down) ([1]; Clothianidin 50 mg/m^2 alone, 3 h after contact): 60%
- Effect % (knock-down) ([1]; Clothianidin 50 mg/m^2 alone, 4 h after contact): 65%
- Effect % (knock-down) ([1]; Clothianidin 50 mg/m^2 alone, 24 h after contact): 95%
- Effect % (knock-down) (Aedes aegypti; [17]): 5%
- Effect % (knock-down) (Aedes aegypti; [18]): 5%
- Effect % (knock-down) (Aedes aegypti; [19]): 5%
- Effect % (knock-down) (Aedes aegypti; [20]): 5%
- Effect % (knock-down) (Aedes aegypti; [21]): 5%
- Effect % (knock-down) (Aedes aegypti; [22]): 10%
- Effect % (knock-down) (Aedes aegypti; [23]): 15%
- Effect % (knock-down) (Aedes aegypti; [24]): 0%
- Effect % (knock-down) (Aedes aegypti; [25]): 15%
- Effect % (knock-down) (Aedes aegypti; [26]): 20%
- Effect % (knock-down) (Aedes aegypti; [27]): 15%
- Effect % (knock-down) (Aedes aegypti; [28]): 10%
- Effect % (knock-down) (Aedes aegypti; [29]): 10%
- Effect % (knock-down) (Aedes aegypti; [30]): 30%
- efficiency on wood (mosquitoes; on wood): not efficient

SMILES: CN/C(=N/CC1CCOC1)N[N+](=O)[O-] (stereo not drawn) [Dinotefuran, dinotefuran]
- Effect % (knock-down) [1, 31]: 10%
- Effect % (knock-down) [1, 32]: 5%
- Effect % (knock-down) [1, 33]: 5%
- Effect % (knock-down) [1, 34]: 10%
- Effect % (knock-down) [1, 35]: 20%
- Effect % (knock-down) [1, 36]: 30%
- Effect % (knock-down) [1, 37]: 35%
- Effect % (knock-down) [1, 38]: 15%
- Effect % (knock-down) [1, 39]: 5%
- Effect % (knock-down) [1, 40]: 15%
- Effect % (knock-down) [1, 41]: 40%
- Effect % (knock-down) [1, 42]: 35%
- Effect % (knock-down) [1, 43]: 65%
- Effect % (knock-down) [1, 44]: 65%
- Effect % (knock-down) [2, 31]: 0%
- Effect % (knock-down) [2, 32]: 0%
- Effect % (knock-down) [2, 33]: 5%
- Effect % (knock-down) [2, 34]: 0%
- Effect % (knock-down) [2, 35]: 10%
- Effect % (knock-down) [2, 36]: 15%
- Effect % (knock-down) [2, 37]: 35%
- Effect % (knock-down) [2, 38]: 15%
- Effect % (knock-down) [2, 39]: 10%
- Effect % (knock-down) [2, 40]: 10%
- Effect % (knock-down) [2, 41]: 15%
- Effect % (knock-down) [2, 42]: 30%
- Effect % (knock-down) [2, 43]: 40%
- Effect % (knock-down) [2, 44]: 55%
